Calls of active or inactive are those of the source. How the calls were made is not given here.
Target: Chaperone protein DnaK (Escherichia coli (strain K12)) (UniProt P0A6Y8)
Experiment: binders of DnaK substrate-binding domain, biophysical, NMR, chaperone (AID 1033)
Conditions: Purified DnaK SBD, NMR ligand binding

Chain of Chaperone protein DnaK (Escherichia coli (strain K12)) (P0A6Y8 whole entry, looked up, the tested form may be a part): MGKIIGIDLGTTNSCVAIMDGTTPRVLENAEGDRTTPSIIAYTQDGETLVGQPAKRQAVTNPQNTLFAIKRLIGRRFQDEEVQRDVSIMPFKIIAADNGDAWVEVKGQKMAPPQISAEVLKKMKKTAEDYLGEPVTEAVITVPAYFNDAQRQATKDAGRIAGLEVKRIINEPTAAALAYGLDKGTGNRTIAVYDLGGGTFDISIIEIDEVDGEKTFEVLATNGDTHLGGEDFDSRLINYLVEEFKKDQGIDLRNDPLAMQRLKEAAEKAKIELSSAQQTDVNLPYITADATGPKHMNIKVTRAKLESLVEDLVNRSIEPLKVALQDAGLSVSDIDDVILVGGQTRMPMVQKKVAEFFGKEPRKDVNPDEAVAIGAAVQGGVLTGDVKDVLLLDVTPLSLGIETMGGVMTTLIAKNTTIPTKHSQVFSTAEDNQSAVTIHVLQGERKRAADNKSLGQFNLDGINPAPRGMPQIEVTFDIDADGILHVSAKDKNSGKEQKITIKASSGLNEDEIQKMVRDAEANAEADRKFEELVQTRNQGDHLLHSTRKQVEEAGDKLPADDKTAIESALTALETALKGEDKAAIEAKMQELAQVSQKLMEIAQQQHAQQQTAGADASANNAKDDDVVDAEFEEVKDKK

| Structure (SMILES) | Kd |
| --- | --- |
| O=C(Nc1cnccn1)c1ccncc1 | > 4 mM (inactive) |
| Cc1cc(C)n2c(SCc3c(C)noc3C)nnc2n1 | > 4 mM (inactive) |
| CC1(C)Oc2ccc3ccc(=O)oc3c2CC1O (stereo not given) | > 4 mM (inactive) |
| NC(CSCSCC(N)C(=O)O)C(=O)O (stereo not given) | > 4 mM (inactive) |
| CC(=O)N1CCn2c3c(c(=O)c4cc(C)ccc42)CCC31 (stereo not given) | > 4 mM (inactive) |
| O=C(O)c1ccc(-c2cnco2)cc1 | > 4 mM (inactive) |
| COc1ccc(-c2noc(-c3ccco3)n2)cc1OC | > 4 mM (inactive) |
| CC[C@@]1(O)C(=O)OCc2c1cc1n(c2=O)Cc2cc3ccccc3nc2-1 | > 4 mM (inactive) |
| Cc1nc(SCC#N)c2c(C)c(C)sc2n1 | > 4 mM (inactive) |
| COCC(=O)Nc1ccc(F)cc1F | > 4 mM (inactive) |
| Cc1ccc(F)cc1NC(=O)c1ccc2c(c1)OCO2 | > 4 mM (inactive) |
| O=C1CC(NCc2ccco2)C(=O)NN1 (stereo not given) | > 4 mM (inactive) |
| CCCCCCCCCCCCCCC(C(=O)OC)C(O)(CC(=O)OC)C(=O)OC (stereo not given) | > 4 mM (inactive) |
| CC[C@H]1CN2CCC1C[C@@H]2[C@@H](O)c1ccnc2ccc(OC)cc12 (stereo not given in full) | > 4 mM (inactive) |
| Cc1ccc2nc(NC(=O)CN3CCOCC3)sc2c1 | > 4 mM (inactive) |
| CC(=O)c1c(O)n(C)c(=S)n(C)c1=O | > 4 mM (inactive) |
| CSc1nc2cc(F)c(F)cc2n1C | > 4 mM (inactive) |
| O=C(O)C1CCN(S(=O)(=O)c2cccs2)CC1 | > 4 mM (inactive) |
| NS(=O)(=O)c1ccc2c(c1)OCCO2 | > 4 mM (inactive) |
| CC(=O)OC[C@@]1(O)C[C@@]23CCC4c5ccoc5CC[C@]4(C)C2CC[C@@H]1C3 (stereo not given in full) | > 4 mM (inactive) |
| NC(=O)C1CCCN1S(=O)(=O)c1ccc(F)cc1 (stereo not given) | > 4 mM (inactive) |
| COC(=O)CC1SC(=O)NC1=O (stereo not given) | > 4 mM (inactive) |
| OCc1ccc(N2CCOCC2)cc1 | > 4 mM (inactive) |
| NC12CC3CC(C1)CC(CC(=O)O)(C3)C2 | > 4 mM (inactive) |

| Structure (SMILES) | Kd |
| --- | --- |
| O=C(Nc1ccccc1)N1CCOCC1 | > 4 mM (inactive) |
| Cc1ccc2cc(CO)ccc2n1 | > 4 mM (inactive) |
| Nc1nncn1C(=O)c1c(Cl)cccc1Cl | > 4 mM (inactive) |
| Cc1nc2sc3c(c2c(=N)n1N)CC(C)(C)OC3 | > 4 mM (inactive) |
| Cc1nc2cc(Cl)ccc2n1CCO | > 4 mM (inactive) |
| O=S(=O)(Nc1ccc2c(c1)OCCO2)c1cccs1 | > 4 mM (inactive) |
| COc1cccc(NC(=O)c2ocnc2C)c1 | > 4 mM (inactive) |
| c1ccc(CSc2ncccn2)cc1 | > 4 mM (inactive) |
| Nc1cc(=O)[nH]c(=S)n1CCc1ccccc1 | > 4 mM (inactive) |
| O=C1c2ccc(F)cc2C(=O)N1CO | > 4 mM (inactive) |
| Cc1nn2c(nc1=O)SCC2(O)c1ccccc1 (stereo not given) | > 4 mM (inactive) |
| CC(=O)O[C@@H]1CC[C@@]2(C)C(CC[C@]3(C)C2CC=C2C4CC(C)(C)CC[C@]4(C(=O)O)CC[C@]23C)C1(C)C (stereo not given in full) | > 4 mM (inactive) |
| Cc1noc(C)c1C(=O)N1CCN(c2ncccn2)CC1 | > 4 mM (inactive) |
| CN(C)c1ccc(C2CC(=O)CC(=O)C2)cc1 | > 4 mM (inactive) |
| O=C1C2C3C=CC(C3)C2C(=O)N1c1nccs1 (stereo not given) | > 4 mM (inactive) |
| Cc1cccc(NC(=O)CN2C(=O)CNC2=O)c1 | > 4 mM (inactive) |
| O=C(Nc1cccnc1)Nc1ccc2c(c1)OCO2 | > 4 mM (inactive) |
| COC(=O)CC1NC2CCCCC2NC1=O (stereo not given) | > 4 mM (inactive) |
| O=C(NCc1ccco1)c1ccc(=O)[nH]c1 | > 4 mM (inactive) |
| NC(=O)C1CCN(Cc2ccccc2)CC1 | > 4 mM (inactive) |
| Cc1cc(C(=O)Nc2ccccn2)no1 | > 4 mM (inactive) |
| N=C1/C(=C\c2ccco2)C(=O)N=C2SC=NN12 | > 4 mM (inactive) |
| CSc1nc(O)cc(=O)[nH]1 | > 4 mM (inactive) |
| O=C(O)CCSc1nc2ccccc2s1 | > 4 mM (inactive) |

| Structure (SMILES) | Kd |
| --- | --- |
| N#Cc1c(N)c(C(=O)c2ccccc2)n2c1CCC2 | > 4 mM (inactive) |
| O=C(Nc1ccccc1)c1cccc(N2C(=O)CCC2=O)c1 | > 4 mM (inactive) |
| O=c1c(O)c(-c2ccc(O)c(O)c2)oc2cc(O)ccc12 | > 4 mM (inactive) |
| COC(=O)c1noc(C)c1C(C)=O | > 4 mM (inactive) |
| Cn1nnc2cc(C(=O)Nc3cccnc3)ccc21 | > 4 mM (inactive) |
| Cn1cnc2ccc([N+](=O)[O-])cc2c1=O | > 4 mM (inactive) |
| COc1nc(C)ccc1-c1noc(-c2ccco2)n1 | > 4 mM (inactive) |
| NC(=O)c1cn(-c2ccccc2)nc1-c1cccnc1 | > 4 mM (inactive) |
| O=C(COc1ccccc1O)NCCO | > 4 mM (inactive) |
| CC1=C2C(=CO[C@H](C)[C@H]2C)C(=O)C(C(=O)O)=C1O | > 4 mM (inactive) |
| CC(=O)OCC(=O)[C@@]1(O)CCC2C3CC[C@@H]4C[C@H](O)CC[C@]4(C)C3C(=O)C[C@@]21C (stereo not given in full) | > 4 mM (inactive) |
| CC(=O)Oc1ccc2c(c1OC(C)=O)OCC1(O)Cc3c(cc(OC(C)=O)c(OC(C)=O)c3OC(C)=O)C21 (stereo not given) | > 4 mM (inactive) |
| O=C(O)C1CC(=O)N(Cc2ccc(F)cc2)C1 (stereo not given) | > 4 mM (inactive) |
| CC1CCC2(OC1)OC1CC3C4CCC5C[C@@H](O)CCC5(C)C4=CCC3(C)C1[C@@H]2C (stereo not given in full) | > 4 mM (inactive) |
| Cc1cc(NC(=O)CCCn2cnc([N+](=O)[O-])n2)no1 | > 4 mM (inactive) |
| O=C(O)C1C(=O)NCC1c1ccccc1 (stereo not given) | > 4 mM (inactive) |
| N[C@@H](Cc1ccc(O)c(O)c1)C(=O)O | > 4 mM (inactive) |
| Nc1ccc(-c2cnco2)cc1 | > 4 mM (inactive) |
| Oc1ccc(-n2cncn2)cc1 | > 4 mM (inactive) |
| CC1(C)C(=O)[C@@H]2O[C@@H]2[C@@]2(C)C1C[C@@H](O)[C@]1(C)C2CC[C@@]2(C)[C@H](c3ccoc3)OC(=O)C3OC321 (stereo not given in full) | > 4 mM (inactive) |
| OC12CC3CC(C1)C1(NCCS1)C(C3)C2 (stereo not given) | > 4 mM (inactive) |
| Cc1nc2nc(-c3ccco3)nn2c(C)c1Cl | > 4 mM (inactive) |
| CCOC(=O)c1c(C)nc2sccn12 | > 4 mM (inactive) |
| CN(C)C(=O)CSc1nc2ccccc2c(=O)[nH]1 | > 4 mM (inactive) |

| Structure (SMILES) | Kd |
| --- | --- |
| CC1(C)CC[C@]2(C(=O)O)CC[C@]3(C)C(=CCC4[C@@]5(C)CC[C@@H](O)C(C)(C)C5CC[C@]43C)C2C1 (stereo not given in full) | > 4 mM (inactive) |
| Cc1c(C)[n+]([O-])c(-c2ccc([N+](=O)[O-])cc2)n1O | > 4 mM (inactive) |
| COc1ccccc1NC(=O)C1CCC(=O)N1 (stereo not given) | > 4 mM (inactive) |
| Cc1ccsc1/C=c1\sc2ncnn2c1=O | > 4 mM (inactive) |
| Cn1ncc(NC(=O)Nc2ccc(F)cc2F)c1C(N)=O | > 4 mM (inactive) |
| Cc1cc(=O)n2ccc(CN3CCOCC3)c(O)c2n1 | > 4 mM (inactive) |
| Nc1ncccc1OCc1ccccc1 | > 4 mM (inactive) |
| COc1ccccc1NC(=O)C1CCCCC1 | > 4 mM (inactive) |
| COc1ccc2c(c1)OCC(Cc1ccc(OC)c(OC)c1)C2=O (stereo not given) | > 4 mM (inactive) |
| NC12CC3CC(C1)CC(C(=O)O)(C3)C2 | > 4 mM (inactive) |
| CC(NC(=O)c1cccnc1)c1ccc2c(c1)OCO2 (stereo not given) | > 4 mM (inactive) |
| O=C(O)Cn1cnc2ccccc2c1=O | > 4 mM (inactive) |
| CCOC(=O)C1CN(C)CCN1C (stereo not given) | > 4 mM (inactive) |
| Nc1ncnc2nc(SCCN3CCCCC3)[nH]c12 | > 4 mM (inactive) |
| CC(C)=NNC(=O)C(=O)NC(C)(C)C | > 4 mM (inactive) |
| O=C(O)CCC(=O)Nc1ccccn1 | > 4 mM (inactive) |
| CCOC(=O)c1c(C)[nH]c2ccc(O)cc12 | > 4 mM (inactive) |
| COc1ccc(/C=C2/SC(N)=NC2=O)c(OC)c1 | > 4 mM (inactive) |
| Cc1ccc(C2NS(=O)(=O)N=C2N)cc1 (stereo not given) | > 4 mM (inactive) |
| COC(=O)[C@@]1(C)CCC[C@]2(C)c3ccc(O)c(C(C)C)c3CCC12 (stereo not given in full) | > 4 mM (inactive) |
| O=C1N=c2ccccc2=C1c1sc(=S)[nH]c1O | > 4 mM (inactive) |
| CCOC(=O)C1C(C=C(C)C)C1(C)C (stereo not given) | > 4 mM (inactive) |
| NC(=O)CSCc1c(Cl)cccc1Cl | > 4 mM (inactive) |
| O=C(Nc1ccncc1)Nc1ccc(F)cc1F | > 4 mM (inactive) |

| Structure (SMILES) | Kd |
| --- | --- |
| CC(=O)Nc1sccc1C(=O)NC(N)=O | > 4 mM (inactive) |
| CN1CCN(c2nc3c(c(=O)[nH]2)CCCC3)CC1 | > 4 mM (inactive) |
| Cc1ccnc(NS(=O)(=O)c2cccs2)c1 | > 4 mM (inactive) |
| O=C(c1nc2ncccn2n1)N1CCc2ccccc2C1 | > 4 mM (inactive) |
| O=C(CSc1ncn[nH]1)c1ccc2c(c1)OCCO2 | > 4 mM (inactive) |
| NC(=O)c1ccc(C(N)=O)c(-c2ccccc2)c1 | > 4 mM (inactive) |
| Cc1cc(NS(=O)(=O)Cc2ccccc2)no1 | > 4 mM (inactive) |
| O=C(O)CN(CCCc1ccccc1)CC(=O)O | > 4 mM (inactive) |
| CC(=O)Nc1cc(S(=O)(=O)N(C)C)ccc1Cl | > 4 mM (inactive) |
| CC1(C)CC23C(=O)CCC(O)C2(C)CCC13 (stereo not given) | > 4 mM (inactive) |
| CC(C)(C)c1ccc(SCC(N)=O)cc1 | > 4 mM (inactive) |
| Nc1scc[n+]1CC(=O)[O-] | > 4 mM (inactive) |
| CCC1=Nc2ccccc2-c2nnc(SC)nc2O1 | > 4 mM (inactive) |
| COc1ccc(C(C)=O)c(OC)c1 | > 4 mM (inactive) |
| CCOC(=O)c1c(C)n([O-])c2ccccc2[n+]1=O | > 4 mM (inactive) |
| Nc1ccc(-n2cccc2)cc1 | > 4 mM (inactive) |
| O=C(NCc1ccc2c(c1)OCO2)c1cccs1 | > 4 mM (inactive) |
| Cc1cc(=O)c2c(O)c(C)c(O)cc2o1 | > 4 mM (inactive) |
| COc1cccc(/C=C/C(=O)O)c1C(C)C | > 4 mM (inactive) |
| O=C1NC(=S)N/C1=C\c1ccccc1F | > 4 mM (inactive) |
| CC1=NN(C(N)=S)C(C)(C)C1 | > 4 mM (inactive) |
| O=c1c(Cl)c(NCCO)ncn1-c1ccccc1 | > 4 mM (inactive) |
| CC(C)c1c(O)ccc2c1CCC1C(C)(C)CCC[C@]21C (stereo not given in full) | > 4 mM (inactive) |
| CCCn1c(S(=O)(=O)O)nc2ccccc21 | > 4 mM (inactive) |

Source: PubChem BioAssay AID1033 (Sanford-Burnham Center for Chemical Genomics, 2008)
